Values quoted from earlier work as cited in patent US20050186280A1, “Method for stabilizing a composition having a biologically active epidermal growth factor as an active ingredient” (Daewoong Pharm. Co., Ltd., priority 2000, published 2005).

Details: background statement; applied to wounds

For epidermal growth factor [EGF], the “half-life of EGF” value is listed as “about 1 hour”.
